EC50 data for 15 compounds are collected here from US20200016136A1 (VIIV HEALTHCARE UK (NO. 5) LIMITED, priority 2017, published 2020).

The assay concerns NL-RLuc virus (recombinant NL4-3 HIV with Renilla Luciferase gene). The assay can be described thus: Inhibition of HIV replication (NL-RLuc virus in MT-2 cells, luciferase readout). The format is cell-based, Human immunodeficiency virus (HIV). Particulars: MT2, 120 h. An outline of the steps:
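MT-2 cells infected with NL4-3-derived virus carrying Renilla luciferase in place of part of nef, grown 5 days with serial compound dilutions in RPMI 1640/10% FBS. Virus growth read as luciferase expression. EC50 from median effect equation, at least 2 experiments.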
As to `Cc1cccc(Cl)c1CN1CCc2cc(-c3c(CN(C)CC4CCOCC4)nc(Cl)c([C@H](OC(C)(C)C)C(=O)O)c3N3CCC(C)(C)CC3)ccc2C1` [Example 98, (S)-2-(tert-Butoxy)-2-(2-chloro-5-(2-(2-chloro-6-methylbenzyl)-1,2,3,4-tetrahydroisoquinolin-6-yl)-4-(4,4-dimethylpiperidin-1-yl)-6-((methyl((tetrahydro-2H-pyran-4-yl)methyl)amino)methyl)pyridin-3-yl)acetic Acid], the EC50 came to 0.7 nM. For `Cc1cc(F)ccc1CN1CCc2cc(-c3c(N)nc(Cl)c([C@H](OC(C)(C)C)C(=O)O)c3N3CCC(C)(C)CC3)ccc2C1` [Example 99, (S)-2-(6-Amino-2-chloro-4-(4,4-dimethylpiperidin-1-yl)-5-(2-(4-fluoro-2-methylbenzyl)-1,2,3,4-tetrahydroisoquinolin-6-yl)pyridin-3-yl)-2-(tert-butoxy)acetic Acid], the EC50 came out at 4 nM. Regarding `CC1(C)CCN(c2c(-c3ccc4c(c3)CCN(c3ncnc5c3oc3ccccc35)C4)c(N)nc(Cl)c2[C@H](OC(C)(C)C)C(=O)O)CC1` [Example 100, (S)-2-(6-Amino-5-(2-(benzofuro[3,2-d]pyrimidin-4-yl)-1,2,3,4-tetrahydroisoquinolin-6-yl)-2-chloro-4-(4,4-dimethylpiperidin-1-yl)pyridin-3-yl)-2-(tert-butoxy)acetic Acid], the EC50 amounted to 4 nM. With `CC1(C)CCN(c2c(-c3ccc4c(c3)CCN(c3nccc(-c5cccnc5)n3)C4)c(N)nc(Cl)c2[C@H](OC(C)(C)C)C(=O)O)CC1` [Example 101, (S)-2-(6-Amino-2-chloro-4-(4,4-dimethylpiperidin-1-yl)-5-(2-(4-(pyridin-3-yl)pyrimidin-2-yl)-1,2,3,4-tetrahydroisoquinolin-6-yl)pyridin-3-yl)-2-(tert-butoxy)acetic Acid] the figure was 2 nM; with `Cc1cccc(Cl)c1CN1CCc2cc(-c3cnc(Cl)c([C@H](OC(C)(C)C)C(=O)O)c3N3CCC(C)(C)CC3)ccc2C1` [Example 102, (S)-2-(tert-Butoxy)-2-(2-chloro-5-(2-(2-chloro-6-methylbenzyl)-1,2,3,4-tetrahydroisoquinolin-6-yl)-4-(4,4-dimethylpiperidin-1-yl)pyridin-3-yl)acetic Acid], 8 nM. As for `CC1(C)CCN(c2c(-c3ccc4c(c3)CCN(c3ncnc5c3oc3ccccc35)C4)cnc(Cl)c2[C@H](OC(C)(C)C)C(=O)O)CC1` [Example 103, (S)-2-(5-(2-(Benzofuro[3,2-d]pyrimidin-4-yl)-1,2,3,4-tetrahydroisoquinolin-6-yl)-2-chloro-4-(4,4-dimethylpiperidin-1-yl)pyridin-3-yl)-2-(tert-butoxy)acetic Acid], the concentration for a half-maximal effect (EC50) turned out to be 2 nM. As to `Cc1nc(C)c([C@H](OC(C)(C)C)C(=O)O)c(N2CCC(C)(C)CC2)c1-c1ccc2c(c1)CCN(c1cc(N3CCC(C(C)(C)O)CC3)ncc1F)C2` [Example 104, (S)-2-(tert-Butoxy)-2-(4-(4,4-dimethylpiperidin-1-yl)-5-(2-(5-fluoro-2-(4-(2-hydroxypropan-2-yl)piperidin-1-yl)pyridin-4-yl)-1,2,3,4-tetrahydroisoquinolin-6-yl)-2,6-dimethylpyridin-3-yl)acetic Acid], the half-maximal effective concentration (EC50) worked out at 10 nM. For the compound `Cc1nc(C)c([C@H](OC(C)(C)C)C(=O)O)c(N2CCC(C)(C)CC2)c1-c1ccc2c(c1)CCN(c1nccc(-c3cccnc3)n1)C2` [Example 105, (S)-2-(tert-Butoxy)-2-(4-(4,4-dimethylpiperidin-1-yl)-2,6-dimethyl-5-(2-(4-(pyridin-3-yl)pyrimidin-2-yl)-1,2,3,4-tetrahydroisoquinolin-6-yl)pyridin-3-yl)acetic Acid], the EC50 worked out at 1 nM. With `COc1ncccc1-c1cc(C)nc(N2CCc3cc(-c4c(C)nc(C)c([C@H](OC(C)(C)C)C(=O)O)c4N4CCC(C)(C)CC4)ccc3C2)n1` [Example 106, (S)-2-(tert-Butoxy)-2-(4-(4,4-dimethylpiperidin-1-yl)-5-(2-(4-(2-methoxypyridin-3-yl)-6-methylpyrimidin-2-yl)-1,2,3,4-tetrahydroisoquinolin-6-yl)-2,6-dimethylpyridin-3-yl)acetic Acid] the figure was 8 nM; with `COc1ccncc1-c1cc(C)nc(N2CCc3cc(-c4c(C)nc(C)c([C@H](OC(C)(C)C)C(=O)O)c4N4CCC(C)(C)CC4)ccc3C2)n1` [Example 107, (S)-2-(tert-Butoxy)-2-(4-(4,4-dimethylpiperidin-1-yl)-5-(2-(4-(4-methoxypyridin-3-yl)-6-methylpyrimidin-2-yl)-1,2,3,4-tetrahydroisoquinolin-6-yl)-2,6-dimethylpyridin-3-yl)acetic Acid], 1 nM; with `Cc1nc(C)c([C@H](OC(C)(C)C)C(=O)O)c(N2CCC(C)(C)CC2)c1-c1ccc2c(c1)CCN(c1nccc(-c3cnccn3)n1)C2` [Example 108, (S)-2-(tert-Butoxy)-2-(4-(4,4-dimethylpiperidin-1-yl)-2,6-dimethyl-5-(2-(4-(pyrazin-2-yl)pyrimidin-2-yl)-1,2,3,4-tetrahydroisoquinolin-6-yl)pyridin-3-yl)acetic Acid], 2 nM. As to `Cc1nc(C)c([C@H](OC(C)(C)C)C(=O)O)c(N2CCC(C)(C)CC2)c1-c1ccc2c(c1)CCN(c1nccc(-c3ccccn3)n1)C2` [Example 109, (S)-2-(tert-Butoxy)-2-(4-(4,4-dimethylpiperidin-1-yl)-2,6-dimethyl-5-(2-(4-(pyridin-2-yl)pyrimidin-2-yl)-1,2,3,4-tetrahydroisoquinolin-6-yl)pyridin-3-yl)acetic Acid], the EC50 was 1 nM. As for `CC1(C)CCN(c2c(-c3ccc4c(c3)CCN(c3ncnc5c3oc3ccccc35)C4)c(CNCCS(C)(=O)=O)nc(Cl)c2[C@H](OC(C)(C)C)C(=O)O)CC1` [Example 110, (S)-2-(5-(2-(Benzofuro[3,2-d]pyrimidin-4-yl)-1,2,3,4-tetrahydroisoquinolin-6-yl)-2-chloro-4-(4,4-dimethylpiperidin-1-yl)-6-(((2-(methylsulfonyl)ethyl)amino)methyl)pyridin-3-yl)-2-(tert-butoxy)acetic Acid], the EC50 was 110 nM. With `CC1(C)CCN(c2c(-c3ccc4c(c3)CCN(c3ncnc5c3oc3ccccc35)C4)c(CNCC3CCOCC3)nc(Cl)c2[C@H](OC(C)(C)C)C(=O)O)CC1` [Example 111, (S)-2-(5-(2-(Benzofuro[3,2-d]pyrimidin-4-yl)-1,2,3,4-tetrahydroisoquinolin-6-yl)-2-chloro-4-(4,4-dimethylpiperidin-1-yl)-6-((((tetrahydro-2H-pyran-4-yl)methyl)amino)methyl)pyridin-3-yl)-2-(tert-butoxy)acetic Acid] the figure was 0.7 nM. For `CN(Cc1nc(Cl)c([C@H](OC(C)(C)C)C(=O)O)c(N2CCC(C)(C)CC2)c1-c1ccc2c(c1)CCN(c1ncnc3c1oc1ccccc13)C2)CC1CCOCC1` [Example 112, (S)-2-(5-(2-(Benzofuro[3,2-d]pyrimidin-4-yl)-1,2,3,4-tetrahydroisoquinolin-6-yl)-2-chloro-4-(4,4-dimethylpiperidin-1-yl)-6-((methyl((tetrahydro-2H-pyran-4-yl)methyl)amino)methyl)pyridin-3-yl)-2-(tert-butoxy)acetic Acid], the 50% effective concentration (EC50) was 0.3 nM.
